Columns and labels:
[1] = molecular target: T1, full-length purified human estrogen receptor ERβ (Homo sapiens, UniProt Q92731); test: ERβ competitive radiometric binding assay; settings: for RBA ERβ (relative binding affinity): RBA = IC50[estradiol]/IC50[compound] × 100, estradiol = 100, 2 nM [3H]-estradiol tracer, 18–24 h at 0 °C
T1 construct: full-length purified human estrogen receptors ERα and ERβ
Protocol: . The receptors and ligands were incubated for 18–24 h at 0 °C and then the receptor–ligand complexes separated using hydroxyapatite (BioRad, Hercules, CA, USA). […]

[2] = molecular target: T2, full-length purified human estrogen receptor ERα (Homo sapiens, UniProt P03372); test: ERα competitive radiometric binding assay; settings: for RBA ERα (relative binding affinity): RBA = IC50[estradiol]/IC50[compound] × 100, estradiol = 100, 2 nM [3H]-estradiol tracer, 18–24 h at 0 °C
T2 construct: full-length purified human estrogen receptors ERα and ERβ
T2 sequence (P03372 1-595): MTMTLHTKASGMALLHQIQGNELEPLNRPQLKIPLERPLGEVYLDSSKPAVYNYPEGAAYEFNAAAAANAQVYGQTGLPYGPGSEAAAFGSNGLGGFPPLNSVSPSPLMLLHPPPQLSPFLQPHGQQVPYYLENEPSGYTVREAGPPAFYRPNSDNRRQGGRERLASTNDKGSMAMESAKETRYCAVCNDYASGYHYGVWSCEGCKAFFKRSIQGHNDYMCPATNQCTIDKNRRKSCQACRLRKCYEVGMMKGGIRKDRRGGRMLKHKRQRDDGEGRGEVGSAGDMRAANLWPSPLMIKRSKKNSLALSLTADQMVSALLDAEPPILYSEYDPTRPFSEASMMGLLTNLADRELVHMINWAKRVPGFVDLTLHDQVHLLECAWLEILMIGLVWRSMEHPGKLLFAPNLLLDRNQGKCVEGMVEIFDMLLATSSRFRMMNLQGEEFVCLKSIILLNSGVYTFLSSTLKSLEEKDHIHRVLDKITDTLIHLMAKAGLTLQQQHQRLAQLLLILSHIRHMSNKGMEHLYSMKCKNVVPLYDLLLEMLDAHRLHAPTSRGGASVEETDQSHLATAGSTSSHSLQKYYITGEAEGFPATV
Protocol: The receptors and ligands were incubated for 18–24 h at 0 °C and then the receptor–ligand complexes separated using hydroxyapatite (BioRad, Hercules, CA, USA).

[3] = test system: progesterone receptor (PGR) expression in MCF-7 cells; test: Progesterone receptor (PGR) gene expression in MCF-7 cells, real-time PCR; assay type: cell-based, human; settings: 20 h; estradiol 1 and 10 nM; 8-PN, XN, DXN, TXN 0.2, 1 and 5 μM; vs 0.1% ethanol
Protocol: MCF-7 cells (American Type Culture Collection, Manassas, VA, USA) were cultured in DMEM (Corning Life Sciences, Tewksbury, MA, USA) supplemented with 10% fetal bovine serum (Corning Life Sciences) and 100 μg/ml penicillin/streptomycin (Invitrogen, Carlsbad, CA, USA). For estrogen-free experiments, cells were seeded in phenol-free DMEM (Gibco/Life Technologies, Grand Island, NY, USA) plus 10% charcoal-dextran-treated FBS (Corning Life Sciences) at 5 × 10^5 cells/well of a 6-well plate. […] Total RNA was isolated using TRIzol (Invitrogen) and converted into cDNA using iScript (Bio-Rad, Hercules, CA, USA). Real-time PCR was performed in triplicate on a CFX-96 (Bio-Rad) using primer-probe assays (IDT Technologies, Coralville, IA, USA) and SsoAdvanced Universal Probes Supermix (Bio-Rad) to quantify progesterone receptor (PGR) and GAPDH levels. The ratio of PGR to GAPDH was calculated as 2^−ΔCt PGR/2^−ΔCt GAPDH. Data were analyzed using a one-way ANOVA (p < 0.05 was considered statistically significant) and a post-hoc Tukey’s multiple comparison test. Induction of the progesterone receptor in MCF-7 cells is one of the indices of estrogenicity of flavonoids such as 8-PN[94].

MCF-7 cells = test: MCF-7 cell proliferation, sulforhodamine B (SRB) assay; assay type: cell-based, human; settings: 0.001–1 µM, 48 h exposure, vs vehicle control
Protocol: The SRB assay has been used to study the effects of phytochemicals such as XN, DXN and 8-PN on cell proliferation of various cancer cell lines, including MCF-7 cells[91],[92]. SRB is a dye that binds to cellular proteins of adherent cells and the absorbance readings are a measure of the number of viable cells (cell mass) attached to the culture plate after incubation with the test compounds (samples) in comparison with vehicle control cells. The cell mass is then extrapolated as a measurement of cell viability and cell proliferation. Increased proliferation of MCF-7 cells is one of the measures of estrogenicity of phytochemicals. MCF-7 cells were plated at 10,000 cells/well in 96-well plates in DMEM medium containing 10% charcoal-stripped FBS and antibiotics. […] After incubation with the test compounds for 48 h, the cell culture medium was removed from each well of the 96-well plate and the cells were fixed for 1 h with 10% trichloroacetic acid. The cells on the plate were washed five with distilled water, air-dried, and then stained with SRB dye (0.4% w/v in 1% acetic acid). Excess dye was removed by washing the plate five times with 1% acetic acid. The plates were air-dried and the adsorbed dye was solubilized in 10 mM Tris buffer for 5 min on a shaker before reading the optical density (OD) at 565 nm. The percentage cell viability/proliferation was calculated as follows: (ODSample−ODZeroblank)/(ODControl−ODZeroblank)×100. Mean values and the coefficient of variation (CV) from six replicate wells were calculated and a one-way ANOVA was used to compare statistical differences between treated and control cells, with p < 0.05 as the level of significance.

C2C12 cells = test: Seahorse OCR and ECAR measurements (mitochondrial uncoupling); assay type: cell-based, mouse; settings: oligomycin 1 μM, C2C12 cells
Protocol: OCR and ECAR measurements were performed with a Seahorse XF 24 Analyzer (Agilent Technologies, Inc., Santa Clara, CA, USA). C2C12 cells were plated in culture medium at a density of 40,000 cells per well in a 24-well plate. The cells were then allowed to adhere for 24 h (37 °C, 5% CO2). Prior to the assay, the cells were washed with freshly prepared running medium consisting of Seahorse XF Assay medium (Agilent Technologies, Inc., Santa Clara, CA, USA), 10 mM glucose and 1 mM sodium pyruvate. The pH of the medium was adjusted to 7.4 with 1 M NaOH. The cells were then equilibrated for one hour at 37 °C without CO2. […] To overcome this problem, the test compounds were first dissolved in ethanol and the resulting solution was diluted 100-fold in treatment medium (9 parts XF media and 1 part 10% FBS media) which was added directly to cells. The treatment medium contained 1% FBS and after a further 10-fold dilution into the media in wells, only 0.1% FBS was present during OCR and ECAR measurements. The final concentrations in the wells were: 1 μM for oligomycin, and 5 μM for XN, DXN or TXN. The concentration of oligomycin and the cell density used were selected based on preliminary experiments. Ethanol was added to the control wells not to exceed a final concentration of 0.1% (vehicle control). OCR and ECAR were measured at 9-min intervals.
Seahorse data: to show a consistent baseline, OCR values (in pmol/min/mg protein) and ECAR values (in mpH/min/mg protein) for each value were divided, prior to statistical analysis, by the average of the four pre oligomycin treatment values (0, 8, 17, and 25 min) for the corresponding well and are shown as % pre oligomycin values. To account for repeated measures within wells over time, we utilized a repeated-measures-in-time design using ANOVA procedures in PROC MIXED (SAS). Fixed effects in the model were treatment (control, 5 μM XN, 5 μM DXN, and 5 μM TXN for the compound study), time (0, 8, 17, 25, 34, 43, 52, 60, 69, 78, 86, and 95 min), and their interaction. The random effect was the experiment (5 experiments for the compound study). To account for repeated measures within wells over time, a first order homogeneous variance-covariance matrix [AR(1)] was fitted for each well. Using the ESTIMATE statement, a priori contrasts were constructed by comparing the changes in compound treated cells from the last two time points prior to compound treatment (average 52 and 60 min) to the changes in control cells during the same time-period. This was carried out for each compound and dosage for 69, 78, 86, and 95 min separately and for all four time points combined. Results are shown in the text and the graphs as least squares means and their corresponding SEM (standard error of mean). […]

[4] = parameters: method as in PMID 17517853, PMID 20154334; settings: meta-analysis of 42 trials, p = 0.03; cited from earlier work

T1 sequence (Q92731 whole entry): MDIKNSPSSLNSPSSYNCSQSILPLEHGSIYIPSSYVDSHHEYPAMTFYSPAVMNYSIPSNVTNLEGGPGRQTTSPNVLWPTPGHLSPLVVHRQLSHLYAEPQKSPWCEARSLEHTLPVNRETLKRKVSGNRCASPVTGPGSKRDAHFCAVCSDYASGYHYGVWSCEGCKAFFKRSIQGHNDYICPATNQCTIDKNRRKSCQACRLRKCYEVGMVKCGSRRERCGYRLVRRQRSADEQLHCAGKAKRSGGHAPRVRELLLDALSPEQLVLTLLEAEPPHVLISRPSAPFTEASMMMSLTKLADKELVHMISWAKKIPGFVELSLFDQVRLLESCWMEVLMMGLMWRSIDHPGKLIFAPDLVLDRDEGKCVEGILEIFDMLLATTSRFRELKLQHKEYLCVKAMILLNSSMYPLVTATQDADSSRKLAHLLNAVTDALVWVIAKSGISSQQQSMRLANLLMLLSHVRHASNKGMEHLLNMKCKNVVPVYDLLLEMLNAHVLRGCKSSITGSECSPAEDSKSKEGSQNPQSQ

Compound | RBA ERβ (relative binding affinity) [1] | RBA ERα (relative binding affinity) [2] | induction of PGR expression [3] | also measured
COc1cc(O)c(CC=C(C)C)c2c1C(=O)CC(c1ccc(O)cc1)O2 (centres unmarked) [IX, Isoxanthohumol, reference compound] | 0.019 ± 0.004 | 0.0020 ± 0.0002 | – | –
CC(C)=CCc1c(O)cc(O)c2c1O[C@H](c1ccc(O)cc1)CC2=O [8-PN, 8-prenylnaringenin, reference compound] | 2.42 ± 0.62 | 0.686 ± 0.18 | statistically significant induction | fold greater affinity for ERβ compared to XN, DXN, and TXN [1]: > 100 fold; MCF-7 cell viability/proliferation at low concentrations (MCF-7 cells): induced cell proliferation; fold greater affinity for ERα compared to XN, DXN, and TXN [2]: > 100 fold
CC[C@H]1/C=C/C=C/C[C@@H](C)[C@H](O)[C@@](C)(O)C(=O)[C@@H](C)[C@H](O)[C@@H](C)C(=O)[C@@H](C)[C@H](O)[C@@H](C)/C=C/C(=O)O[C@@H]2[C@H](C)[C@H](CC1)O[C@]1(CC[C@H](C)[C@H](C[C@@H](C)O)O1)[C@H]2C [oligomycin, reference compound] | – | – | – | Increase in ECAR (C2C12 cells): 1.6 fold
C[C@]12CC[C@@H]3c4ccc(O)cc4CC[C@H]3[C@@H]1CC[C@@H]2O [estradiol, 17β-estradiol, reference compound] | – | – | statistically significant induction | –
CN(CCOc1ccc(CC2SC(=O)NC2=O)cc1)c1ccccn1 (centres unmarked) [rosiglitazone] | – | – | – | Increased risk of heart attack [4]: 43%
